The target of this experiment is WDR5 (Homo sapiens (Human), UniProt P61964). The experiment in a line: Surface Plasmon Resonance (SPR) assay, KD and residence time. It counts as binding. The settings on record: surface plasmon resonance (SPR) assay; read-out: WDR5 binding affinity (KD). In general terms: In SPR one partner is held on a chip, and binding of the other changes the refractive index at the surface.
Broadly, the Kd is the free concentration of one partner at which half of the binding sites on the other are occupied at equilibrium, for simple one-to-one binding. Take `C[C@@H]1CN(c2cc(F)c(-c3ccnc(N4CCOCC4)c3)cc2NC(=O)c2c[nH]c(=O)cc2C(F)(F)F)C[C@H](C)N1C` [Example 83, N-[4-fluoro-5-(2-morpholin-4-ylpyridin-4-yl)-2-[(3R,5S)-3,4,5-trimethylpiperazin-1-yl]phenyl]-6-oxo-4-(trifluoromethyl)-1H-pyridine-3-carboxamide]: the Kd came to 0.391 nM.

On to `COCCOc1ccc(-c2cc(NC(=O)c3c[nH]c(=O)cc3C(F)(F)F)c(N3C[C@@H](C)N(C)[C@@H](C)C3)cc2F)cn1` [Example 84, N-[4-fluoro-5-[6-(2-methoxyethoxy)pyridin-3-yl]-2-[(3R,5S)-3,4,5-trimethylpiperazin-1-yl]phenyl]-6-oxo-4-(trifluoromethyl)-1H-pyridine-3-carboxamide], for which the Kd was found to be 0.338 nM.

`C[C@@H]1CN(c2cc(F)c(-c3cccc(N4CCOCC4)c3)cc2NC(=O)c2c[nH]c(=O)cc2C(F)(F)F)C[C@H](C)N1C` [Example 85, N-[4-fluoro-5-(3-morpholin-4-ylphenyl)-2-[(3R,5S)-3,4,5-trimethylpiperazin-1-yl]phenyl]-6-oxo-4-(trifluoromethyl)-1H-pyridine-3-carboxamide]: the Kd turned out to be 0.703 nM.

With `COc1ccccc1C(=O)Nc1cc(-c2cnc(N3CCOCC3)nc2)c(F)cc1N1C[C@@H](C)N(C)[C@@H](C)C1` [Example 86, N-[4-fluoro-5-(2-morpholin-4-ylpyrimidin-5-yl)-2-[(3R,5S)-3,4,5-trimethylpiperazin-1-yl]phenyl]-2-methoxybenzamide], the Kd is 204 nM.

For `C[C@@H]1CN(c2cc(F)c(-c3cnc(N4CCOCC4)nc3)cc2NC(=O)c2ccc(F)cc2Cl)C[C@H](C)N1C` [Example 87, 2-chloro-4-fluoro-N-[4-fluoro-5-(2-morpholin-4-ylpyrimidin-5-yl)-2-[(3R,5S)-3,4,5-trimethylpiperazin-1-yl]phenyl]benzamide], the Kd stood at 8.21 nM.

In the case of `C[C@@H]1CN(c2cc(F)c(-c3cnc(N4CCOCC4)nc3)cc2NC(=O)c2cc(F)ccc2C(F)(F)F)C[C@H](C)N1C` [Example 88, 5-fluoro-N-[4-fluoro-5-(2-morpholin-4-ylpyrimidin-5-yl)-2-[(3R,5S)-3,4,5-trimethylpiperazin-1-yl]phenyl]-2-(trifluoromethyl)benzamide], the Kd amounted to 24.1 nM.

`COc1cccc(C(=O)Nc2cc(-c3cnc(N4CCOCC4)nc3)c(F)cc2N2C[C@@H](C)N(C)[C@@H](C)C2)c1` [Example 89, N-[4-fluoro-5-(2-morpholin-4-ylpyrimidin-5-yl)-2-[(3R,5S)-3,4,5-trimethylpiperazin-1-yl]phenyl]-3-methoxybenzamide]: the Kd came out at 33.8 nM.

For the molecule `C[C@@H]1CN(c2cc(F)c(C3=CCOCC3)cc2NC(=O)c2c[nH]c(=O)cc2C(F)(F)F)C[C@H](C)N1C` [Example 94, N-[5-(3,6-dihydro-2H-pyran-4-yl)-4-fluoro-2-[(3R,5S)-3,4,5-trimethylpiperazin-1-yl]phenyl]-6-oxo-4-(trifluoromethyl)-1H-pyridine-3-carboxamide], the Kd amounted to 4.06 nM.

Consider `C[C@@H]1CN(c2cc(F)c(C3=CCNCC3)cc2NC(=O)c2c[nH]c(=O)cc2C(F)(F)F)C[C@H](C)N1C` [Example 95, N-[4-fluoro-2-[(3R,5S)-3,4,5-trimethylpiperazin-1-yl]-5-(1,2,3,6-tetrahydropyridin-4-yl)phenyl]-6-oxo-4-(trifluoromethyl)-1H-pyridine-3-carboxamide], for which the Kd was determined as 7.18 nM.

With `C[C@@H]1CN(c2cc(F)c(-c3cc(Cl)c(O)c(C#N)c3)cc2NC(=O)c2c[nH]c(=O)cc2C(F)(F)F)C[C@H](C)N1C` [Example 98, N-[5-(3-chloro-5-cyano-4-hydroxyphenyl)-4-fluoro-2-[(3R,5S)-3,4,5-trimethylpiperazin-1-yl]phenyl]-6-oxo-4-(trifluoromethyl)-1H-pyridine-3-carboxamide], the Kd came to 19.5 nM.

As to `C[C@@H]1CN(c2cc(F)c(-c3cnc(OCc4ccccc4)c(C#N)c3)cc2NC(=O)c2c[nH]c(=O)cc2C(F)(F)F)C[C@H](C)N1C` [Example 99, N-[5-(5-cyano-6-phenylmethoxypyridin-3-yl)-4-fluoro-2-[(3R,5S)-3,4,5-trimethylpiperazin-1-yl]phenyl]-6-oxo-4-(trifluoromethyl)-1H-pyridine-3-carboxamide], the Kd was 11.1 nM.

As to `C[C@@H]1CN(c2cc(F)c(-c3ccc(C#N)cc3)cc2NC(=O)c2c[nH]c(=O)cc2C(F)(F)F)C[C@H](C)N1C` [Example 100, N-[5-(4-cyanophenyl)-4-fluoro-2-[(3R,5S)-3,4,5-trimethylpiperazin-1-yl]phenyl]-6-oxo-4-(trifluoromethyl)-1H-pyridine-3-carboxamide], the Kd was found to be 0.508 nM.

Take `C[C@@H]1CN(c2cc(F)c(-c3ccc(OC4CCOCC4)nc3)cc2NC(=O)c2c[nH]c(=O)cc2C(F)(F)F)C[C@H](C)N1C` [Example 101, N-[4-fluoro-5-[6-(oxan-4-yloxy)pyridin-3-yl]-2-[(3R,5S)-3,4,5-trimethylpiperazin-1-yl]phenyl]-6-oxo-4-(trifluoromethyl)-1H-pyridine-3-carboxamide]: the Kd came to 0.32 nM.

For the molecule `C[C@@H]1CN(c2cc(F)c(-c3cccc(C#N)c3)cc2NC(=O)c2c[nH]c(=O)cc2C(F)(F)F)C[C@H](C)N1C` [Example 102, N-[5-(3-cyanophenyl)-4-fluoro-2-[(3R,5S)-3,4,5-trimethylpiperazin-1-yl]phenyl]-6-oxo-4-(trifluoromethyl)-1H-pyridine-3-carboxamide], the Kd worked out at 2.08 nM.

Take `C[C@@H]1CN(c2cc(F)c(-c3cnc(N(C)C)nc3)cc2NC(=O)c2c[nH]c(=O)cc2C(F)(F)F)C[C@H](C)N1C` [Example 103, N-[5-[2-(dimethylamino)pyrimidin-5-yl]-4-fluoro-2-[(3R,5S)-3,4,5-trimethylpiperazin-1-yl]phenyl]-6-oxo-4-(trifluoromethyl)-1H-pyridine-3-carboxamide]: the Kd was 0.168 nM.

As to `COc1cc(-c2cc(NC(=O)c3c[nH]c(=O)cc3C(F)(F)F)c(N3C[C@@H](C)N(C)[C@@H](C)C3)cc2F)cnc1OC` [Example 104, N-[5-(5,6-dimethoxypyridin-3-yl)-4-fluoro-2-[(3R,5S)-3,4,5-trimethylpiperazin-1-yl]phenyl]-6-oxo-4-(trifluoromethyl)-1H-pyridine-3-carboxamide], the Kd came out at 2.41 nM.

As for `C[C@@H]1CN(c2cc(F)c(-c3cnc(N4CCOCC4)nc3)cc2NC(=O)c2cccc3c2OCO3)C[C@H](C)N1C` [Example 105, N-[4-fluoro-5-(2-morpholin-4-ylpyrimidin-5-yl)-2-[(3R,5S)-3,4,5-trimethylpiperazin-1-yl]phenyl]-1,3-benzodioxole-4-carboxamide], the Kd came to 466 nM.

`COc1ccc(C(=O)Nc2cc(-c3cnc(N4CCOCC4)nc3)c(F)cc2N2C[C@@H](C)N(C)[C@@H](C)C2)cc1` [Example 106, N-[4-fluoro-5-(2-morpholin-4-ylpyrimidin-5-yl)-2-[(3R,5S)-3,4,5-trimethylpiperazin-1-yl]phenyl]-4-methoxybenzamide]: the Kd amounted to 5400 nM.

Regarding `C[C@@H]1CN(c2cc(F)c(-c3cnc(N4CCOCC4)nc3)cc2NC(=O)c2ccc(F)cc2)C[C@H](C)N1C` [Example 107, 4-fluoro-N-[4-fluoro-5-(2-morpholin-4-ylpyrimidin-5-yl)-2-[(3R,5S)-3,4,5-trimethylpiperazin-1-yl]phenyl]benzamide], the Kd worked out at 137 nM.

On to `C[C@@H]1CN(c2cc(F)c(-c3cnc(N4CCOCC4)nc3)cc2NC(=O)c2ccccc2Cl)C[C@H](C)N1C` [Example 109, 2-chloro-N-[4-fluoro-5-(2-morpholin-4-ylpyrimidin-5-yl)-2-[(3R,5S)-3,4,5-trimethylpiperazin-1-yl]phenyl]benzamide], for which the Kd was determined as 175 nM.

Consider `COc1cccc(C(=O)Nc2cc(-c3cnc(N4CCOCC4)nc3)c(F)cc2N2C[C@@H](C)N(C)[C@@H](C)C2)c1F` [Example 110, 2-fluoro-N-[4-fluoro-5-(2-morpholin-4-ylpyrimidin-5-yl)-2-[(3R,5S)-3,4,5-trimethylpiperazin-1-yl]phenyl]-3-methoxybenzamide], for which the Kd is 1730 nM.

On to `C[C@@H]1CN(c2cc(F)c(-c3cnc(N4CCOCC4)nc3)cc2NC(=O)c2ccc(F)c(F)c2)C[C@H](C)N1C` [Example 111, 3,4-difluoro-N-[4-fluoro-5-(2-morpholin-4-ylpyrimidin-5-yl)-2-[(3R,5S)-3,4,5-trimethylpiperazin-1-yl]phenyl]benzamide], for which the dissociation constant (Kd) was 70.6 nM.

For the molecule `COc1ccc(-c2cc(NC(=O)c3c[nH]c(=O)cc3C(F)(F)F)c(N3C[C@@H](C)N(C)[C@@H](C)C3)cc2F)cc1` [Example 112, N-[4-fluoro-5-(4-methoxyphenyl)-2-[(3R,5S)-3,4,5-trimethylpiperazin-1-yl]phenyl]-6-oxo-4-(trifluoromethyl)-1H-pyridine-3-carboxamide], the Kd was 2.44 nM.

Consider `C[C@@H]1CN(c2cc(F)c(-c3ccc(OCC4CC4)cc3)cc2NC(=O)c2c[nH]c(=O)cc2C(F)(F)F)C[C@H](C)N1C` [Example 113, N-[5-[4-(cyclopropylmethoxy)phenyl]-4-fluoro-2-[(3R,5S)-3,4,5-trimethylpiperazin-1-yl]phenyl]-6-oxo-4-(trifluoromethyl)-1H-pyridine-3-carboxamide], for which the Kd was 0.858 nM.

On to `C[C@@H]1CN(c2cc(F)c(-c3ccc(N4CCCC4)cc3)cc2NC(=O)c2c[nH]c(=O)cc2C(F)(F)F)C[C@H](C)N1C` [Example 114, N-[4-fluoro-5-(4-pyrrolidin-1-ylphenyl)-2-[(3R,5S)-3,4,5-trimethylpiperazin-1-yl]phenyl]-6-oxo-4-(trifluoromethyl)-1H-pyridine-3-carboxamide], for which the Kd is 4.06 nM.

Take `CC(=O)Nc1cccc(C(=O)Nc2cc(-c3cnc(N4CCOCC4)nc3)c(F)cc2N2C[C@@H](C)N(C)[C@@H](C)C2)c1` [Example 115, 3-acetamido-N-[4-fluoro-5-(2-morpholin-4-ylpyrimidin-5-yl)-2-[(3R,5S)-3,4,5-trimethylpiperazin-1-yl]phenyl]benzamide]: the Kd is greater than 200 nM.
